For test [1], the target named is Diacylglycerol kinase zeta (Homo sapiens, UniProt Q13574). In words: In Vitro DGK Inhibition Assay. The method, then:
(§1) The DGKα and DGKζ reactions were performed using either extruded liposome (DGKα and DGKζ LIPGLO assays). […] Luminescence was recorded using an EnVision microplate reader.

Test [2] concerns the target Diacylglycerol kinase alpha (Homo sapiens, UniProt P23743). In words: In Vitro DGK Inhibition Assay. As to the method:
as §1

IC50 data for two compounds are collected here from BindingDB's records for patent US11964973 (Bristol-Myers Squibb, 2024).

Each structure is given as a SMILES string.

Sequence of Diacylglycerol kinase zeta (Q13574 as listed by the source): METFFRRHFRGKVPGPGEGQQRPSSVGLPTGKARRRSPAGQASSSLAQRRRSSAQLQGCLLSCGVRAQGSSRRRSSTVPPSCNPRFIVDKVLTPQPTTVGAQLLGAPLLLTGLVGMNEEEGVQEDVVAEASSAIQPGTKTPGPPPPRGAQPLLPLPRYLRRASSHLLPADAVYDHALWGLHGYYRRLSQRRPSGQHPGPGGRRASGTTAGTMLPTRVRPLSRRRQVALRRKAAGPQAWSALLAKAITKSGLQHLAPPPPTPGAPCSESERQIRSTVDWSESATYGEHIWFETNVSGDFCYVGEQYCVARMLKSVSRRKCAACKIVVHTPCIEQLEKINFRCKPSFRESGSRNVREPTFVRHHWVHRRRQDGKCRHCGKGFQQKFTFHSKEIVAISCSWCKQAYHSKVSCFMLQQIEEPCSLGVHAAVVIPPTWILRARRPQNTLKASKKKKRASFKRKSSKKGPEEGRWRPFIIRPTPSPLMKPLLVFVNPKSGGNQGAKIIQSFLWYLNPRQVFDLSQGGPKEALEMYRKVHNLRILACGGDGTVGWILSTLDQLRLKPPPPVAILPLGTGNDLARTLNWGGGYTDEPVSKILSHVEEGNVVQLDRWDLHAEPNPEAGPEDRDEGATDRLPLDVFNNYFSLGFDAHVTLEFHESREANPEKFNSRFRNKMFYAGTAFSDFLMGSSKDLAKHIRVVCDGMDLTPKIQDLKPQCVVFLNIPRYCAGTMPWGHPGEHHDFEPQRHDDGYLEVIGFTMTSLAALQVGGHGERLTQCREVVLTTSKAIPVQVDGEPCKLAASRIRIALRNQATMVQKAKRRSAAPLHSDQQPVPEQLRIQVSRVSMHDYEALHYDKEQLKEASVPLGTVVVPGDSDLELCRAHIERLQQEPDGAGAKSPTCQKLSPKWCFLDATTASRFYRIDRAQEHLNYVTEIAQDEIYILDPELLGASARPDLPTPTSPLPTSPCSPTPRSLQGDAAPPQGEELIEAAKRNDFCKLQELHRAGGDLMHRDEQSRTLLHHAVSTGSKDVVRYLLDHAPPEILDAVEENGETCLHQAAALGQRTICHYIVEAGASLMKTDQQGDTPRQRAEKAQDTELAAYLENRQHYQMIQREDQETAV
Sequence of Diacylglycerol kinase alpha (P23743 whole entry): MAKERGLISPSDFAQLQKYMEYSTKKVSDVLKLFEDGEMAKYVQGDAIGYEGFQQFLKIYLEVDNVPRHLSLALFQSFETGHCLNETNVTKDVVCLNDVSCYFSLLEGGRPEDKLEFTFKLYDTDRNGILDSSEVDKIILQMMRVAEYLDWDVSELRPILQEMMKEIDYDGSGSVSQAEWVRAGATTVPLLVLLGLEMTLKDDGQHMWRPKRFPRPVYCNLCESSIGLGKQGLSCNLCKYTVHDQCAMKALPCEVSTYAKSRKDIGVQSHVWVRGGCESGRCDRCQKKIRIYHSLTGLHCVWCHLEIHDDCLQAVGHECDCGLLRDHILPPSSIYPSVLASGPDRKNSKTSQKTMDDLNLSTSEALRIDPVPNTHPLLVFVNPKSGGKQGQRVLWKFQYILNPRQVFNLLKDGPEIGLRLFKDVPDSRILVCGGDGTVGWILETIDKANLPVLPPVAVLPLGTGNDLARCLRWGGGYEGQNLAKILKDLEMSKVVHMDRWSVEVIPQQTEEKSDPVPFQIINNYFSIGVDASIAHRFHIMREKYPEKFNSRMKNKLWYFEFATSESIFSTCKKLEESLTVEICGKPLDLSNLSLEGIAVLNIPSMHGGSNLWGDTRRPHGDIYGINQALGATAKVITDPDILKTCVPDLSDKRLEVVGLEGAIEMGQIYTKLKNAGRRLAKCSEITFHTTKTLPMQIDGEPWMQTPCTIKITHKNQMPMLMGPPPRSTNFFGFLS

In test [1], `CCO[C@H]1CN(c2cc(=O)n(C)c3ccc(C#N)nc23)CC[C@@H]1Oc1ccc(OC(C)C)cn1` (relative stereo) [US11964973, Example 397] returned an IC50 of 420 nM. As for `Cn1c(=O)cc(N2CCC(Oc3ccc(C(C)(C)C)cc3)CC2)c2cc(C#N)ccc21` [US11964973, Example 53], the IC50 in test [2] came to 770 nM; in test [1], 2000 nM.

For orientation: IC50 means the point on the concentration scale where inhibition reaches its midpoint. Low values mean inhibition by little substance, high ones a need for much substance.
